Measurements as given in patent US7628979B1, “Use of calco oil blue V in bait formulations for marking and controlling subterranean termites” (The United States of America as represented by the …, priority 2005, dated 2009).

Experiments:
[1] = system: Formosan subterranean termites; assay: In-field marking and control, bait at infested trees, sites 1 and 2; format: in vivo; settings: 250 ppm bait
Description: (§1) Formosan subterranean termite and native subterranean termite infested trees (Water Oaks and Legastrums) in New Orleans, La. were chosen for this study. Three sites were selected located at the Southern Regional Research Center campus. Site 1 was located near the service building next to an old water oak tree, site 2 was located in the compound area near ligastrum trees, and site 3 near ligastrum trees outside the compound area. Sites 1 and 2 were active with Formosan subterranean termites and site 3 with Eastern subterranean termites.
(§2) The colored bait matrix at 250 ppm was encapsulated as described above and placed directly in the base of the trees where termites were foraging, making sure that the encapsulated colored bait matrix was covered with soil or with a piece of wood or brick on top of it to prevent desiccation. The bait was periodically inspected for consumption and termite activity. The field study started in early August and was completed by the end of the following June. During winter (December-February) termite activity decreased considerably, but by April termite activity and foraging resumed and the blue colored matrix was replaced by bait formulation containing 250 ppm of chitin synthesis inhibitors to kill the colonies. Diflubenzuron was used in 2 of the sites and chlorfluazuron was used in the remaining site.

[2] = system: Eastern subterranean termites; assay: In-field marking and control, bait at infested trees, site 3; format: in vivo; settings: Site 3 (Ligastrum), 250 ppm bait
Description: as §1, §2

Measured: Bait consumption

O=C(NC(=O)c1c(F)cccc1F)Nc1cc(Cl)c(Oc2ncc(C(F)(F)F)cc2Cl)c(Cl)c1 [Chlorfluazuron, 1-[3,5-dichloro-4-(3-chloro-5-trifluoromethyl-2-pyridyloxy)phenyl]-3-(2,6-difluorobenzoyl)urea, reference compound]
750 g: [1]; Site 2 (Ligastrum), day 281
0 g: [1]; Site 2 (Ligastrum), day 7 | [1]; Site 2 (Ligastrum), day 14 | [1]; Site 2 (Ligastrum), day 21 | [1]; Site 2 (Ligastrum), day 27 | [1]; Site 2 (Ligastrum), day 46 | [1]; Site 2 (Ligastrum), day 56 | [1]; Site 2 (Ligastrum), day 73 | [1]; Site 2 (Ligastrum), day 83 | [1]; Site 2 (Ligastrum), day 102 | [1]; Site 2 (Ligastrum), day 159 | [1]; Site 2 (Ligastrum), day 221
450 g: [1]; Site 2 (Ligastrum), day 251

O=C(NC(=O)c1c(F)cccc1F)Nc1ccc(Cl)cc1 [Diflubenzuron, 1-(4-chlorophenyl)-3-(2,6-difluorobenzoyl)urea, reference compound]
0 g: [2]; day 7 | [2]; day 14 | [2]; day 21 | [2]; day 27 | [2]; day 46 | [2]; day 56 | [2]; day 73 | [2]; day 83 | [2]; day 102 | [2]; day 159 | [2]; day 221 | [1]; Site 1 (Water Oak), day 7 | [1]; Site 1 (Water Oak), day 14 | [1]; Site 1 (Water Oak), day 21 | [1]; Site 1 (Water Oak), day 27 | [1]; Site 1 (Water Oak), day 46 | [1]; Site 1 (Water Oak), day 56 | [1]; Site 1 (Water Oak), day 73 | [1]; Site 1 (Water Oak), day 83 | [1]; Site 1 (Water Oak), day 102 | [1]; Site 1 (Water Oak), day 159 | [1]; Site 1 (Water Oak), day 221
150 g: [2]; day 251 | [1]; Site 1 (Water Oak), day 251
300 g: [2]; day 281 | [1]; Site 1 (Water Oak), day 281
